Experimental data as given in patent publication US9701711B2, “Modulators of protease activated receptors” (THE UNIVERSITY OF QUEENSLAND, priority 2010, dated 2017).

Tests used:
[1] = Stability in rat liver homogenate; type: in vitro ADME; settings: 10 μM, 37° C., up to 180 minutes
Procedure: Blood and liver is collected form non-drug dosed male and female Wistar rats (aged 8-9 weeks, 200-250 g and 250-300 g respectively). Bloods are centrifuged at 8 K rpm for 5 min. Plasma are pooled and stored at −80° C. for later use. The rat livers are homogenized, diluted with three volumes of PBS, cloth filtered. The filtrate is used directly for stability studies.
Lach compound is dissolved in DMSO to make […] stock solution. 10 μL of the stock is diluted with either rat plasma or liver homogenate (490 μL) to make up a starting concentration of 10 μM (triplicates). The mixtures are vortexed and incubated at 37° C. At each time point of 0, 30, 60 and 180 minutes. 100 μL of the mixture is taken and diluted with 300 μL of acetonitrile. The mixture is vortexed and centrifuged, 350 μL of the liquid is transferred into a microfuge tube and concentrated using a rotational vacuum concentrator (Christ Beta-RVC, supplied by Quantum Scientific). 100 μL of acetonitrile water (9:1, v/v) is added to the residue, vortexed and immediately analysed by LCMS/MS. Data from these experiments are expressed as percent of peak area recorded from the LCMS/MS trace at time zero (t0).

PAR2 [2] = molecular target: T1, PAR2 (Rattus norvegicus, UniProt Q63645); experiment: Acute inflammatory model: PAR2-induced paw oedema; type: in vivo; settings: Wistar rat, 10 mg/kg p.o. in olive oil, n=3; agonist 350 μg/paw 2 h after oral dose
T1 construct: from tissue; host or cells: paw of living male Wistar rats
T1 sequence (Q63645 26-397): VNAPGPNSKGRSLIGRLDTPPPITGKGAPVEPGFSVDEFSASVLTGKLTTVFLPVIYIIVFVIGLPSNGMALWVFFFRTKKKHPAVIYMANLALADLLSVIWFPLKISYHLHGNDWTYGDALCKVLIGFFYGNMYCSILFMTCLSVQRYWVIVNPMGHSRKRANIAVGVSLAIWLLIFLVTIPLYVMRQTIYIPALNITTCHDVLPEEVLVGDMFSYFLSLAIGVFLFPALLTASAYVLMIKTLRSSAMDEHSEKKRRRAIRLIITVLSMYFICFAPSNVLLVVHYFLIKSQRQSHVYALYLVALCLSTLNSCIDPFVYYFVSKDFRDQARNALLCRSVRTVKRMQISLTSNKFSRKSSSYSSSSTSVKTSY
Procedure: FIG. 9. Graphical representation of the ability of PAR2 antagonists 18, 30, 42, 44 to attenuate experimental paw oedema.
The methods used are based on those previously described (Kelso. E. B., et al. Arthritis Rheum 2007, 56, 765-71; Kelso. E. B., et al. J Pharmacol Exp Ther 2006, 316, 1017-24; and Vergnolle, N. J Immunol 1999, 163, 5064-9). Male Wistar rats (n=3 per group) are used. Briefly, rats are given either 5 or 10 mg/kg of a compound of the present invention (p.o. via gavage in olive oil, approx. 500 μL, weight adjusted). Control animals receive only olive oil (500 μL p.o.). Two hours later, the PAR2 agonist 2-furoyl-LIGRLO (350 μg/paw in saline, 100 μL) is injected into the plantar surface (i.pl.) of the right paw pad using a 30 G needle. The left paw acts as a control, receiving saline only. Paw thickness and width are measured after 30 minutes and hourly using digital calipers (World Precision Instruments, USA) and swelling is calculated in area (mm^2; thickness multiplied by width) and expressed as a percentage change from baseline of each individual paw. Results for exemplary PAR2 ligands 18, 30, 42 and 44 are illustrated in FIG. 9.

PAR2 [3] = molecular target: T2, PAR2 (Homo sapiens, UniProt P55085); settings: cited from earlier work
T2 sequence (P55085 26-397): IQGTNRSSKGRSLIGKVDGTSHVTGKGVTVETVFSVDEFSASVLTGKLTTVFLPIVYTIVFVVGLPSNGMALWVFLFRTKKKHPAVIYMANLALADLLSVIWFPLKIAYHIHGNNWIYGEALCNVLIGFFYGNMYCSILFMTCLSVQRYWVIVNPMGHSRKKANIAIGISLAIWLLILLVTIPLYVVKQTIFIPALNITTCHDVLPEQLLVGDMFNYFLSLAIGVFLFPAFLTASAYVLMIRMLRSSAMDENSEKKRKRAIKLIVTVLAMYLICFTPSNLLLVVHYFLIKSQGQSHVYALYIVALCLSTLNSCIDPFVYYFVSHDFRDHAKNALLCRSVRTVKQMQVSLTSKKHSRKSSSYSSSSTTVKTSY

PAR2 [4] = molecular target: T2, PAR2; experiment: PAR2 agonist inhibition (antagonism) by intracellular Ca2+ release in HT29 cells; type: cell-based; parameters: Agonists of Ca^2+ release in HT29 cells; endogenous in cells; host or cells: HT29 (human cell line, cultured per ATCC information); settings: HT29 cells; 30 min pre-incubation, then PAR2 agonist (1 μM 2f-LIGRLO-NH2); read-out: IC50, inhibition of Ca2+ release in HT29 cells
Text: The ability of the compounds of the present invention to activate PAR2 may be assessed via calcium mobilisation assays. It is appreciated that compounds that activate the release of intracellular calcium from one type of cell are agonists or partial agonists, while those that inhibit such release may be antagonists. […] The general assay protocols may vary slightly depending on the chosen cell line. In general, during cell culture passage, cell dissociation solution (CDS, Sigma Aldrich) is used to replace trypsin to dissociate cells from surface. Lipopolysaccharide (LPS) and trypsin are purchased from Sigma Aldrich. […] ELISA sets are purchased from BD Pharmingen (San Jose, Calif.) and cytokine array kits are purchased from RayBiotecho (Norcross, Ga.).
Cells are seeded overnight in 96-well black walled, clear bottomed, plate at approximately 2×10^4 to 4×10^5 cells per well. […] The cells are then washed twice with HBSS and transferred to a Polarstar spectrotluorimeter (BMG, Durham N.C.).
The cells are prepared as outlined above then treated with the “putative” antagonist 30 min prior to the addition of either trypsin or a synthetic agonist at a concentration equal to the agonists ED80.
The cells were then treated with 1 μM of the PAR2 agonist 2f-LIGRLO-NH2 (FIG. 2A. n=5) or 100 nM Trypsin (FIG. 2B, n=1). Each data point represents mean±SEM. Net changes in fluorescence were calculated as a percentage relative to the maximum response given 1 μM 2f-LIGRLO-NH2 or 100 nM Trypsin. Changes in fluorescence (% response) were plotted against logarithmic compound concentrations. The half maximal inhibitory concentration (IC50) values were derived from the dose response curve using a nonlinear regression curve in Graphpad Prism v5.

| Molecule | Stability in rat liver homogenate [1] | Paw swelling induced by 2-f-LIGRLO-NH2 (PAR2 [2]) | Selectivity for PAR2 over PAR1 (PAR2 [3]) | Agonist potency relative to SLIGRL-NH2 (PAR2 [3]; higher agonist potency than SLIGRL-NH2) | IC50 (PAR2 [4]) |
| --- | --- | --- | --- | --- | --- |
| CC[C@H](C)[C@H](NC(=O)[C@H](CC1CCCCC1)NC(=O)c1cc(N)no1)C(=O)N1CCC2(C=Cc3ccccc32)CC1 [Compound 42, 5-(3-amino-isoxazoyl)-Cha-Ile-spiro[indene-1,4′-piperidine]] | decomposed to varied degree | reduced the paw swelling | – | – | – |
| 2-furoyl-LIGRL-NH2 | – | – | selective for PAR2 over PAR1 | ~20 fold | – |
| CC[C@H](C)[C@H](NC(=O)[C@H](CC1CCCCC1)NC(=O)c1ccno1)C(=O)N1CCC(c2ccccc2)CC1 [Compound 30, 5-isoxazoyl-Cha-Ile-(4-phenyl)piperidine] | decomposed to varied degree | reduced the paw swelling | – | – | – |
| CC[C@H](C)[C@H](NC(=O)[C@H](CC1CCCCC1)NC(=O)c1ccno1)C(=O)NCc1ccccc1OC [Compound 18, 5-isoxazoyl-Cha-Ile-aminomethyl-(2-methoxy)phenyl] | decomposed to varied degree | reduced the paw swelling | – | – | 500 ± 100 nM |
| CO[C@H](C)[C@H](NC(=O)[C@H](CC1CCCCC1)NC(=O)c1ccno1)C(=O)N1CCC2(C=Cc3ccccc32)CC1 [Compound 44, 5-isoxazoyl-Cha-Thr(Me)-spiro[indene-1,4′-piperidine]] | decomposed to varied degree | reduced the paw swelling | – | – | 1000 nM |
